Source: ChEMBL document CHEMBL1145312, “Structure-activity relationships of triazolopyridine oxazole p38 inhibitors: identification of candidates for clinical development” (Bioorg Med Chem Lett, 2006)

Key:
[1] = system: Monocyte; test: Inhibition of LPS-induced TNFalpha production in human monocytes; assay type: functional, cell-based
[2] = target: Mitogen-activated protein kinase 14 (Homo sapiens, UniProt Q16539); test: Inhibition of p38alpha
[3] = Inhibition of PKC
[4] = organism: Homo sapiens; test: Inhibition of LPS-induced TNFalpha production in human whole blood; assay type: functional, organism-based
[5] = target: Ribosomal protein S6 kinase (P70S6K) (Homo sapiens, UniProt P23443+Q9UBS0); test: Inhibition of P70S6K; assay type: protein-complex assay
[6] = target: Dual specificity tyrosine-phosphorylation-regulated kinase 1A (Homo sapiens, UniProt Q13627); test: Inhibition of DYRK1a
[7] = target: AMP-activated protein kinase, AMPK; test: Inhibition of AMPK; assay type: protein-complex assay
[8] = target: Ribosomal protein S6 kinase alpha-1 (Homo sapiens, UniProt Q15418); test: Inhibition of MAPKAP-K1a
[9] = target: T1, MAP kinase-activated protein kinase 5 (Homo sapiens, UniProt Q8IW41); test: Inhibition of PRAK
T1 sequence (Q8IW41 whole entry): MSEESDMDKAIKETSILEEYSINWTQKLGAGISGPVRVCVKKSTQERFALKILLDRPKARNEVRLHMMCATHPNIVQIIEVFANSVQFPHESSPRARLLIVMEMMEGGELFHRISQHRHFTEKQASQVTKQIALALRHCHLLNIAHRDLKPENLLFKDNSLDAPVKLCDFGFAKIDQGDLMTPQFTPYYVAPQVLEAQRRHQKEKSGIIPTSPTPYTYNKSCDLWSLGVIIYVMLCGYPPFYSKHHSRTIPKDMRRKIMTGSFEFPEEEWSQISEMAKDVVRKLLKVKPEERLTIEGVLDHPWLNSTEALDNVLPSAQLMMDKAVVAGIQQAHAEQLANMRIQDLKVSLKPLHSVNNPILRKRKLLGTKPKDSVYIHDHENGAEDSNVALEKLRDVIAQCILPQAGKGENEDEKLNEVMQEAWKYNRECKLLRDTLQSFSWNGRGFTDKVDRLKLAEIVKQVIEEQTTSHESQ

[10] = target: Ribosomal protein S6 kinase alpha-5 (Homo sapiens, UniProt O75582); test: Inhibition of MSK1
[11] = target: Mitogen-activated protein kinase 1 (Homo sapiens, UniProt P28482); test: Inhibition of ERK2
[12] = target: T2, Mitogen-activated protein kinase 12 (Homo sapiens, UniProt P53778); test: Inhibition of p38-gamma
T2 sequence (P53778 whole entry): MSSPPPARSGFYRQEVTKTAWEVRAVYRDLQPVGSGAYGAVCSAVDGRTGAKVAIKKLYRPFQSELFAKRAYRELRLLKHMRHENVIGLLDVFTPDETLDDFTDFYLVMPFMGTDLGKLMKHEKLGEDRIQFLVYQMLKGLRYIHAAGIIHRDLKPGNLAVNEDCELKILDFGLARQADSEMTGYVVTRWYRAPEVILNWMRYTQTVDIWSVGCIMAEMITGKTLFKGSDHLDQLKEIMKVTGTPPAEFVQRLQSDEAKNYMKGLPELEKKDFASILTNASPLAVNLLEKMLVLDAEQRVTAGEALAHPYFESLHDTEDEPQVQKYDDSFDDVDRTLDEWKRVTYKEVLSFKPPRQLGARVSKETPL

[13] = target: Tyrosine-protein kinase CSK (Homo sapiens, UniProt P41240); test: Inhibition of CSK
[14] = Inhibition of phosphorylase kinase
[15] = target: T3, Mitogen-activated protein kinase 13 (Homo sapiens, UniProt O15264); test: Inhibition of p38delta
T3 sequence (O15264 whole entry): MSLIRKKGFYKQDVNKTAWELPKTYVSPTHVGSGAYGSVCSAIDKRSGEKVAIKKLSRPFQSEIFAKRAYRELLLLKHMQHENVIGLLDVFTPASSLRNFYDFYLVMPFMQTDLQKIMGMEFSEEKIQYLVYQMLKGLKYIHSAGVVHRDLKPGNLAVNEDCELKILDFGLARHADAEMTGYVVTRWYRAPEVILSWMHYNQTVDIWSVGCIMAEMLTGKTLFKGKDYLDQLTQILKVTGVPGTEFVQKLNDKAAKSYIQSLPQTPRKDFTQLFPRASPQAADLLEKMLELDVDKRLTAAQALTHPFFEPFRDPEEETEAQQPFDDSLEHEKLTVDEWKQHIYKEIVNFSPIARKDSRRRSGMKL

[16] = target: Glycogen synthase kinase-3 beta (Homo sapiens, UniProt P49841); test: Inhibition of GSK3-beta
[17] = target: T4, Serine/threonine-protein kinase Chk1 (Homo sapiens, UniProt O14757); test: Inhibition of CHK1
T4 sequence (O14757 whole entry): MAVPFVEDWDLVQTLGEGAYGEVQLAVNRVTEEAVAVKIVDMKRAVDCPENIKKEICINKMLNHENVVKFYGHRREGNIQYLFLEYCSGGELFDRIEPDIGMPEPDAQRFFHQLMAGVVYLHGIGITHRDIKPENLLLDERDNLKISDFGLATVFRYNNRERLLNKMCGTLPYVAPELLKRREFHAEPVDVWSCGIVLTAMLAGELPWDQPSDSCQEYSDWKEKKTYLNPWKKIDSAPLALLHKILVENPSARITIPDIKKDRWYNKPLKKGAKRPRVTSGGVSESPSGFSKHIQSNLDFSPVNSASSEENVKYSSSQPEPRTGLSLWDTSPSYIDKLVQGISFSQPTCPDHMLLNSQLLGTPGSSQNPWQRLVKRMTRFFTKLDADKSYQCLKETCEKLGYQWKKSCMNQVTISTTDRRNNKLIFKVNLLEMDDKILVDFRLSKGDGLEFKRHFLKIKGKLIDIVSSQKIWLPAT

[18] = target: Protein kinase C alpha type (Homo sapiens, UniProt P17252); test: Inhibition of PKCalpha
[19] = target: Tyrosine-protein kinase Lck (Homo sapiens, UniProt P06239); test: Inhibition of Lck
[20] = target: c-Jun N-terminal kinase, JNK (Homo sapiens, UniProt P45983+P53779+P45984); test: Inhibition of JNK; assay type: protein assay
[21] = target: MAP kinase-activated protein kinase 2 (Homo sapiens, UniProt P49137); test: Inhibition of MAPKAP-K2
[22] = target: Dual specificity mitogen-activated protein kinase kinase 1 (Homo sapiens, UniProt Q02750); test: Inhibition of MKK1
Sequence of Dual specificity mitogen-activated protein kinase kinase 1 (Q02750 whole entry): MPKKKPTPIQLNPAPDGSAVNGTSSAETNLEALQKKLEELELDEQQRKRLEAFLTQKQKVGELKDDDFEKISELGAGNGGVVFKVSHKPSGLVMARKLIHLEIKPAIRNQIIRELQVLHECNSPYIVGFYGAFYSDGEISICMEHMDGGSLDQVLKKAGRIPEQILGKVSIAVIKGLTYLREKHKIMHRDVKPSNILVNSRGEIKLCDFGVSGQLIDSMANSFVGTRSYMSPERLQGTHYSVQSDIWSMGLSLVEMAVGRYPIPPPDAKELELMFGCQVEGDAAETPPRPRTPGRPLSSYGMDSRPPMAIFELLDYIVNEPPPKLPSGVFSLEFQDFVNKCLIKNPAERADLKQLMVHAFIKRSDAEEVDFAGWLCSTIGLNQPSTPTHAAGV

Sequence of Ribosomal protein S6 kinase alpha-5 (O75582 whole entry): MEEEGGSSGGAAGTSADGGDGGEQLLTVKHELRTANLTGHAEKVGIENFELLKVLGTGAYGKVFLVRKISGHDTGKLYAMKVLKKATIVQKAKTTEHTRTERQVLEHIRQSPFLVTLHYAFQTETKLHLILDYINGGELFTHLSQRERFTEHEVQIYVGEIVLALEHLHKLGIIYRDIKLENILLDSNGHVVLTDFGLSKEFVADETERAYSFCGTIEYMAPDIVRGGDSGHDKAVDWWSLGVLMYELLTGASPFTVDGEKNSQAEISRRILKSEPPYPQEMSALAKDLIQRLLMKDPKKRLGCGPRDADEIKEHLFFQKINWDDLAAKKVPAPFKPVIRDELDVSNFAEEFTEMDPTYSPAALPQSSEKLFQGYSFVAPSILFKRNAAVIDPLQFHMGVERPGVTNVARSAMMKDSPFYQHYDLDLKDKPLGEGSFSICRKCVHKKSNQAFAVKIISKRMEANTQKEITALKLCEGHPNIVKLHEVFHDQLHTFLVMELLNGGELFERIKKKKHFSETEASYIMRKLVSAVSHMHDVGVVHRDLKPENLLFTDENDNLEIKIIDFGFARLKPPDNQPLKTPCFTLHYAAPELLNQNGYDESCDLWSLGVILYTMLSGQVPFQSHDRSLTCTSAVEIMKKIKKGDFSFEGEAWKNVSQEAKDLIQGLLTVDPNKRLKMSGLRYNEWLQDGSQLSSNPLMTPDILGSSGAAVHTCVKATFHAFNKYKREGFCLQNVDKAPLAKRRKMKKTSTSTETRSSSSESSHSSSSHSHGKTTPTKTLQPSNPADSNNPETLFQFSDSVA
Sequence of MAP kinase-activated protein kinase 2 (P49137 whole entry): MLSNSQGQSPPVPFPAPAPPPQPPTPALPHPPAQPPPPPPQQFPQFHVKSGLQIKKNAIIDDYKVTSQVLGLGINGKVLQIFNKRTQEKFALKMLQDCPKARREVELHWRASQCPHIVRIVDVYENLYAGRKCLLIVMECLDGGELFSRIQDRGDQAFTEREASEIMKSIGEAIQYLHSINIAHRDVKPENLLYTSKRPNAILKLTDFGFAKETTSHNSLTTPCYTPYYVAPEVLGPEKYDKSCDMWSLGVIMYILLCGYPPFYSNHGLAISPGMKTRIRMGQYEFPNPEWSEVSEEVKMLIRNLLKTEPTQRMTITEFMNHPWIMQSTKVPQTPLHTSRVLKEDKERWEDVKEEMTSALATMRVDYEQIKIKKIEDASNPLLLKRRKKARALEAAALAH
Sequence of Ribosomal protein S6 kinase alpha-1 (Q15418 whole entry): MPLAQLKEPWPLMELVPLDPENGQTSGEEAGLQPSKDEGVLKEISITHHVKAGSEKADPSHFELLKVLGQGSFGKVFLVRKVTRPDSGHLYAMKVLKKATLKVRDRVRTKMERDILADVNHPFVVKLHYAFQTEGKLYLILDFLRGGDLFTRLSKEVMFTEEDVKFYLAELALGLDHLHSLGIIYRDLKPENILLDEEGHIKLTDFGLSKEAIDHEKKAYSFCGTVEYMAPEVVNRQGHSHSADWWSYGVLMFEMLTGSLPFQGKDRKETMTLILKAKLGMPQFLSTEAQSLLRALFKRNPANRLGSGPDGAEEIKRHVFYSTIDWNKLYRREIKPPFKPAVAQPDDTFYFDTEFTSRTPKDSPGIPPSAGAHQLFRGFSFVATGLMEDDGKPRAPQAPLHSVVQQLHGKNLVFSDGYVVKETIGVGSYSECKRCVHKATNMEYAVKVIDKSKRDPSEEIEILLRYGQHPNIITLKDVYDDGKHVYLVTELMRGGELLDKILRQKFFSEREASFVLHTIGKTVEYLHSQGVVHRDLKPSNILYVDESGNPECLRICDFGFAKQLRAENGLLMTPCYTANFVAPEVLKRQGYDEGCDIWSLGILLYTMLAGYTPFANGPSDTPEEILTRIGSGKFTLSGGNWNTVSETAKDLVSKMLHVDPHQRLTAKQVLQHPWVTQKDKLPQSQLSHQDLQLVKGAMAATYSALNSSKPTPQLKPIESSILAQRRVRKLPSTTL
Sequence of Mitogen-activated protein kinase 14 (Q16539 whole entry): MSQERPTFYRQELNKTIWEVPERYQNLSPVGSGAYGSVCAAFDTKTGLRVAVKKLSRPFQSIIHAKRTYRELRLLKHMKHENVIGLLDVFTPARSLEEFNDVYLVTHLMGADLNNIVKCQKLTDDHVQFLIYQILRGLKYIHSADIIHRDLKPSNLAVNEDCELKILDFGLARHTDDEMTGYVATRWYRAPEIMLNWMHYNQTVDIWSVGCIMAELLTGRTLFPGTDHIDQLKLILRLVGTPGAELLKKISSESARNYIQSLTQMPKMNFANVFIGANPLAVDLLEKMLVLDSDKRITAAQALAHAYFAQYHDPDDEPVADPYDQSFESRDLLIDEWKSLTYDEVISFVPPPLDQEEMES
Sequence of Glycogen synthase kinase-3 beta (P49841 whole entry): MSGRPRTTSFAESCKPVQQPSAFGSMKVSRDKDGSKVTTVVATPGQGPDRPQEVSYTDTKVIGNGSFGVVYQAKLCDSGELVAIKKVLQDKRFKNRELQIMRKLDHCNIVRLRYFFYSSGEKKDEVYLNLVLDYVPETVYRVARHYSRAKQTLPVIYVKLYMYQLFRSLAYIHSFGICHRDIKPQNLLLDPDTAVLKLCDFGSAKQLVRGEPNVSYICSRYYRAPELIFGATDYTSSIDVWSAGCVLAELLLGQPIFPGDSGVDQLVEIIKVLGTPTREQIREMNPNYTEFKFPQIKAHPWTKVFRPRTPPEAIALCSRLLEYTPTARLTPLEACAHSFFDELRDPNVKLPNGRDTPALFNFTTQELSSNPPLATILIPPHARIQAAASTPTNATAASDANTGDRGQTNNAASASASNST
Sequence of Ribosomal protein S6 kinase (P70S6K) (Q9UBS0 whole entry): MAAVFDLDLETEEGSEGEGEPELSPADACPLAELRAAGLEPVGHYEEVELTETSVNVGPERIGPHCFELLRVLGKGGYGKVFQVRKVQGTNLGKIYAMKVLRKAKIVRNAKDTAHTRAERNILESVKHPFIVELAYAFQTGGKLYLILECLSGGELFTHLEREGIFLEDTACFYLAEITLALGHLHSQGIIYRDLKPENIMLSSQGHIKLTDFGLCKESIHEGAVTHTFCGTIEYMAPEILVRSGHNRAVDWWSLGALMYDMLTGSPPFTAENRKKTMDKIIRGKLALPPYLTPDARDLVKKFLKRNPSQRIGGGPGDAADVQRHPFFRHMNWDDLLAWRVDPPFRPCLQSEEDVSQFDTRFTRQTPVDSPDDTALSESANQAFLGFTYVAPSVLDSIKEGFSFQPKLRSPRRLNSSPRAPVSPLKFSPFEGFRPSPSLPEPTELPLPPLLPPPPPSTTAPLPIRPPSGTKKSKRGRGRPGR
Sequence of Ribosomal protein S6 kinase (P70S6K) (P23443 whole entry): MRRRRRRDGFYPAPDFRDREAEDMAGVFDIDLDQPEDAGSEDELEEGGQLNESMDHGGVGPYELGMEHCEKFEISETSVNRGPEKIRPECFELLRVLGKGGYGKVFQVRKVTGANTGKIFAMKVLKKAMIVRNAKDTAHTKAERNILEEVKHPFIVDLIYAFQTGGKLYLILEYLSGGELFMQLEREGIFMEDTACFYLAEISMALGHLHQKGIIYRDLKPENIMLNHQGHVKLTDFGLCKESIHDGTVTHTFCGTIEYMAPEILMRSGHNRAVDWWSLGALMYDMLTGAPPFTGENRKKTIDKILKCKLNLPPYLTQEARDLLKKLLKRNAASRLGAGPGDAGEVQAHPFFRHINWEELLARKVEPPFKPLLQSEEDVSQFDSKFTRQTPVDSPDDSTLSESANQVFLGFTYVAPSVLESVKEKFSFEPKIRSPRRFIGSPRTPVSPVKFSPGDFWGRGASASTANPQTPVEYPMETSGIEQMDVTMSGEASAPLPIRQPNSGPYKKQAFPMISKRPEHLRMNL

SMILES	IC50 [1]	IC50 [2]	IC50 [3]	IC50 [4]	IC50 [5]	IC50 [6]	IC50 [7]	IC50 [8]	IC50 [9]	IC50 [10]	IC50 [11]	IC50 [12]	IC50 [13]	IC50 [14]	IC50 [15]	IC50 [16]	IC50 [17]	IC50 [18]	IC50 [20]	IC50 [21]	also measured
CC(C)c1nnc2ccc(-c3c[nH]nc3-c3cc(F)ccc3F)cn12	14.1 nM	2.8 nM	> 10 µM	180 nM	> 10 µM	> 10 µM	> 10 µM	> 10 µM	> 10 µM	> 10 µM	> 10 µM	> 10 µM	> 10 µM	> 10 µM	> 10 µM	> 10 µM	> 10 µM	> 10 µM	> 10 µM	> 10 µM	IC50 [19]: > 10 µM; IC50 [22]: > 10 µM
CC(C)c1nnc2ccc(-c3ocnc3-c3ccccc3)cn12	71.4 nM	9.6 nM	> 10 µM	973 nM	> 10 µM	> 10 µM	> 10 µM	> 10 µM	> 10 µM	> 10 µM	> 10 µM	> 10 µM	> 10 µM	> 10 µM	> 10 µM	> 10 µM	> 10 µM	> 10 µM	> 10 µM	> 10 µM	IC50 [22]: > 10 µM

Continued, in another order:

IC50 [1]	IC50 [2]	IC50 [3]	IC50 [4]	IC50 [5]	IC50 [6]	IC50 [7]	IC50 [8]	IC50 [9]	IC50 [10]	IC50 [11]	IC50 [12]	IC50 [13]	IC50 [14]	IC50 [15]	IC50 [16]	IC50 [17]	IC50 [18]	IC50 [20]	IC50 [21]	SMILES	also measured
12.6 nM	1.1 nM	> 10 µM	76 nM	> 10 µM	> 10 µM	> 10 µM	> 10 µM	> 10 µM	> 10 µM	> 10 µM	> 10 µM	> 10 µM	> 10 µM	> 10 µM	> 10 µM	> 10 µM	> 10 µM	> 10 µM	> 10 µM	CC(C)(C)c1nnc2ccc(-c3ocnc3-c3ccc(F)cc3F)cn12	IC50 [19]: > 10 µM; IC50 [22]: > 10 µM
8.3 nM	1.8 nM	> 10 µM	63 nM	> 10 µM	> 10 µM	> 10 µM	> 10 µM	> 10 µM	> 10 µM	> 10 µM	> 10 µM	> 10 µM	> 10 µM	> 10 µM	> 10 µM	> 10 µM	> 10 µM	> 10 µM	> 10 µM	CC(C)(C)c1nnc2ccc(-c3ocnc3-c3cc(F)c(F)cc3F)cn12	IC50 [22]: > 10 µM
52 nM	7.6 nM	> 10 µM	865 nM	> 10 µM	> 10 µM	> 10 µM	> 10 µM	> 10 µM	> 10 µM	> 10 µM	> 10 µM	> 10 µM	> 10 µM	> 10 µM	> 10 µM	> 10 µM	> 10 µM	> 10 µM	> 10 µM	CCNc1nnc2ccc(-c3ocnc3-c3ccc(F)cc3)cn12	IC50 [19]: > 10 µM; IC50 [22]: > 10 µM
